Test results published in US12458614B2, “Therapeutic agents for improved mobility and cognitive function and for treating neurodegenerative diseases and lysosomal storage disorders” (priority 2017, dated 2025).
Values joined by “and” are separate entries in the source; they are usually repeats but may differ in a detail not shown here. Equal values may be shown once.

Legend:
[1] = tested on: patients with cerebellar ataxia; conditions: cited from earlier work
[2] = tested on: amyloid precursor protein C-terminal fragments (APP-CTFs); assay: APP-CTF levels relative to total APP in the cerebellum; assay type: in vivo, mouse; conditions: NPC1−/− mice, 0.1 g/kg body weight daily from 3 weeks, sacrificed at 8 weeks
Experimental: The Niemann-Pick Disease Type C (NPC) mouse model shares a number of pathological features with Alzheimer's disease (AD) as described herein. […] Mice were sacrificed at 8 weeks of age. Levels of amyloid precursor protein C-terminal fragments (APP-CTFs) were evaluated relative to total amyloid precursor protein (APP) levels in the cerebellum for wild type, untreated wild type NPC1^−/− mice, and AL-treated wild type NPC1^−/− mice. Levels of microtubule-associated protein 1A/1B-light chain 3-phosphatidylethanolamine conjugate (LC3-II) were also evaluated relative to levels of tubulin loading control for wild type, untreated wild type NPC1^−/− mice, and AL-treated wild type NPC1^−/− mice.

[3] = tested on: patients with multisystemic atrophy cerebellar type (MSA-C); assay: Case studies, multisystemic atrophy cerebellar type; assay type: in vivo, human
[4] = tested on: wild-type (Npc1+/+) mice; assay: Weight data; assay type: in vivo, mouse; conditions: 0.1 g/kg from weaning
Source text: (§1) Separate groups of Npc1^−/− and Npc1^+/+ mice were left untreated, as controls. Animals were weighed twice a week. Weights were averaged (mean) across all mice in each group and compared.

[5] = tested on: Npc1−/− mice; assay: Weight data; assay type: in vivo, mouse; conditions: 0.1 g/kg from weaning
Source text: as §1

[6] = tested on: patients with progressive supranuclear palsy; assay: Case studies, progressive supranuclear palsy; assay type: in vivo, human
Experimental: After 27 days of acetyl-leucine treatment, medication was stopped and the patient was re-examined 60 days later. […] Gait analysis was performed before treatment commenced. After 17 days of treatment, medication was stopped and the patient was re-examined 4 days later. […] Gait analysis was performed before treatment commenced. After three weeks of treatment, medication was stopped and the patient was re-examined.

[7] = tested on: Tay-Sachs disease patient fibroblasts; assay: Glycosphingolipid (GSL) levels via HPLC; assay type: cell-based, human; conditions: 1 mM for 6 days, p<0.05
[8] = tested on: person with progressive postural imbalance; assay: Case study Example 22, get up and go test and cognition; assay type: in vivo, human
Experimental: Treatment with acetyl-DL-leucine (Tanganil®) was started because the patient was suffering from imbalance and gait disorder. They initiated a one-month course comprising nine 500 mg tablets taken three times a day (TID) with meals, i.e., a total daily dosage of 4.5 g.
The ability of the subject to move was measured in a home setting “get up and go test”. This test involved the subject rising unaided from their chair and walking the length of their living area to their kitchen. This was timed over seven consecutive days prior to treatment, and over the next seven consecutive days once treatment with Tanganil® had started.
The same subject then initiated another month of treatment, i.e. a further one-month course comprising nine 500 mg capsules taken TID with meals (total daily dosage of 4.5 g).

[9] = tested on: AB variant of Tay-Sachs disease patient fibroblasts; assay: Glycosphingolipid (GSL) levels via HPLC; assay type: cell-based, human; conditions: 1 mM for 6 days
[10] = tested on: patients with Niemann-Pick Type C (NPC); conditions: one-month study, 12 NPC patients (Bremova 2015); cited from earlier work
[11] = tested on: Niemann-Pick A (NPA) patient fibroblasts; assay: Lysosomal volume via LysoTracker; assay type: cell-based, human; conditions: 1 mM, 6 days
[12] = tested on: Aspartylglucosaminuria patient fibroblasts; assay: Lysosomal volume via LysoTracker; assay type: cell-based, human; conditions: 1 mM, 6 days
[13] = tested on: subjects with no apparent dysfunction in cognitive ability or movement/balance; assay: Psychomotor Vigilance Task (Mind Metrics App); assay type: in vivo, human
Source text: For example, the Psychomotor Vigilance Task (PVT) is a sustained-attention, reaction-timed task that measures the speed with which subjects respond to a visual stimulus. The subject monitors a screen and presses the screen as quickly as possible upon the appearance of visual stimuli. The visual stimuli will then disappear and reappear (at irregular time intervals) e.g., 10 times over the course of the test, with the subject touching the screen as quickly as possible upon each reappearance. Test performance is quantified from an average of the e.g. 10 reaction times. The subject's reaction speed and alertness was assessed using the Mind Metrics App (Psychomotor Vigilance Task, 10 trials per test). The Psychomotor Vigilance Task (PVT) is a sustained-attention, reaction-timed task that measures the speed with which subjects respond to a visual stimulus. The subject is required to monitor a screen and press the screen as quickly as possible upon the appearance of visual stimuli. The visual stimuli will then disappear and reappear (at irregular time intervals) 10 times over the course of the test, with the subject touching the screen as quickly as possible upon each reappearance. Test performance is quantified from an average of the 10 reaction times. […] The subject was assessed for 2 weeks prior to taking acetyl-leucine, which constitutes the baseline period. […] Medication was taken at least 2 hours after and 30 minutes prior to eating. The 5 g daily dose was taken in 3 separate doses throughout the day—2 g upon waking, 1.5 g prior to lunch and 1.5 g prior to the evening meal. Daily treatments and assessments continued for 4 weeks. […]

[14] = PSP Patient 4, after three weeks of treatment
[15] = one line per subject (age/gender 66 M, 29 M, 55 F, 50 M, 53 M, 48 F), listed as acetyl-leucine

Structure (SMILES): CC(=O)NC(CC(C)C)C(=O)O (racemic) [acetyl-DL-leucine]
- benefit in degenerative cerebellar ataxia ([1]; case series (Pelz 2015)): did not find benefit
- symptoms of cerebellar ataxia ([1]; case series (Strupp 2013)): symptomatic improvement of cerebellar ataxia
- temporal gait variability ([1]; quantitative gait analysis (Schniepp 2015)): improved temporal gait variability
- APP-CTF levels relative to total APP, cerebellum [2]: lowering of APP-CTFs
- Speech ([3]; MSA-C Patient 1, after one week, 5 g per day): significant improvement in speech
- Dizziness ([3]; MSA-C Patient 2, after 3 weeks): substantially improved
- Falls ([3]; MSA-C Patient 2, after 3 weeks): falls completely stopped
- Gait ([3]; MSA-C Patient 2, after 3 weeks): significant improvement of gait
- Symptoms after stopping medication ([3]; MSA-C Patient 2, one week after first stop): deterioration of gait and dizziness
- Symptoms after stopping medication ([3]; MSA-C Patient 2, two days after second stop): progressive deterioration of gait and dizziness
- Symptomatology after return to treatment ([3]; MSA-C Patient 3): symptomatology re-improved
- Gait analysis (summary) ([3]; MSA-C Patient 3, after one month): improvement of gait speed, and reductions of track width and gait fluctuations
- Symptoms after re-suspension ([3]; MSA-C Patient 3, three weeks after treatment was again suspended): deterioration of symptoms, especially dizziness
- Symptoms after stopping medication ([3]; MSA-C Patient 3, two to three weeks after stopping): progressive deterioration of gait and dizziness
- Effect on weight gain [4]: no significant effect
- Delay of weight loss symptoms compared to the untreated group [5]: two
- Symptoms after suspension ([6]; PSP Patient 1): symptoms worsened
- PSPRS Score ([6]; PSP Patient 1, re-examined about two months later): remained stable
- Dizziness and gait (patient report) ([6]; PSP Patient 1, under therapy, 27 days): significant reduction of dizziness and slight improvement of gait
- Gait / hypokinetic rigid syndrome (patient report) ([6]; PSP Patient 2, 17 days of treatment): no significant improvement of gait or hypokinetic rigid syndrome
- Gait / hypokinetic rigid syndrome (patient report) ([6]; PSP Patient 3, 17 days of treatment): no significant improvement of gait or hypokinetic rigid syndrome
- Symptoms without medication ([6]; PSP Patient 4, after three months without medication): progression of hypokinetic-rigid syndrome
- Gait analysis (summary) [6, 14]: improvement of gait with increased speed, max. speed, and step cycle length and reduction of track width, double stance and coefficient of variation
- Gait and falls (patient report) [6, 14]: gait with increased subjective security and with reduced frequency of falls
- GSL storage [7]: decrease was statistically significant
- Cognitive function (noticed by family) ([8]; after 2-3 weeks of treatment): significant improvement in their cognitive function, spatial awareness and general demeanor
- Faster than pre-treatment, get up and go test ([8]; on treatment, 4.5 g daily): 25%
- Average time, get up and go test ([8]; once treatment had started, 4.5 g daily, 40±3 prior to treatment): 30 ± 2 s
- Side effects ([8]; over eighteen months, 4.5 g per day): no side effects
- Improvements on second treatment ([8]; second one-month course, 4.5 g daily): rapidly returned
- GSL levels [9]: trend towards decreased GSL levels
- ataxia symptoms [10]: symptomatic improvement of ataxia
- LysoTracker fluorescence vs untreated disease fibroblasts [11]: statistically significant reduction in LysoTracker fluorescence toward control level
- LysoTracker fluorescence vs untreated disease fibroblasts [12]: trend in reducing LysoTracker fluorescence toward control level
- % change in Reaction Time ([13]; on-treatment vs baseline, one line per subject (66 M, 29 M, 55 F, 50 M, 53 M, 48 F), listed as acetyl-leucine): −3.593% and 1.408% and 8.13% and −10.24% and −7.474% and −30.86%
- Details on Subjective Improvement ([13]; one line per subject): Improvement in general
- Statistically significant improvement in PVT performance on treatment? [13, 15]: Yes (4×) and No (2×)
- Subjective Improvement on treatment? [13, 15]: Yes (5×) and No
- Adverse effects ([13]; person five): None reported
- Subjective measurements ([13]; person five): feeling less tired than usual
- Adverse effects ([13]; person four): None reported
- Subjective measurements ([13]; person four): improvement in general alertness
- Adverse effects ([13]; person one): None reported
- Subjective measurements ([13]; person one): shortening of the time required to go from ‘asleep’ to ‘fully awake’
- Adverse effects ([13]; person six): None reported
- Subjective measurements ([13]; person six): no difference between on and off medication
- Subjective measurements ([13]; person three): improvement in general alertness
- Adverse events ([13]; person three, first week on medication, one occasion): mild dizziness/lightheadedness
- Adverse effects ([13]; person two): None reported
- Subjective measurements ([13]; person two): improvement in general alertness
